Data as given in patent publication US12133486B2, “Methods of propagation of arbuscular mycorrhizal fungi (AMF) and uses thereof” (Terra Microbes, LLC, priority 2021, dated 2024).

Test system: AM fungi
Assay: Field plot study: AMF spore counts in soil around western wheatgrass roots
Format: in vivo
Details: field plots; for Total Spores t = 47 days / Total Spores t = 0 days: mean n = 3, P added at 120 kg/ha (KCl: same K); for Total Spores t = 47 days / spore numbers compared with the control: second sampling; for Total Spores t = 0 days: t = 0 = first sampling, 14 days after treatment; for spore numbers compared with the control: t = 47
Source text: Twelve plots of size 50 cm by 50 cm were established on a homogenous site 2.54 meters (running northeast and southwest) by 4.06 meters (running southeast and northwest). Plant distribution was mostly homogeneous across the entire site, with western wheatgrass dominant. The plots were in four rows with three plots in each row. Within a row plots were 25 cm apart. Rows were 50 cm apart. An experimental unit was one plot. Treatments were replicated three times. Treatments included: controls (no treatment), potassium chloride treatment, potassium phosphate treatment, and potassium phosphite treatment. (See, FIG. 2).
In this study phosphorus, either as phosphate or phosphite, was added at a rate of 120 kg of P per hectare (ha). Scaled down this equates to 3 grams of phosphorous per plot. One ha is 10,000 m^2. Each plot is 50 cm by 50 cm, or 0.25 m^2. The subsequent calculation then is 120 Kg/10,000 m^2=X/0.25 m^2; X=3.00 grams of P per plot. (See Table 2).
Treatments: All plots received the same amount of solution. The control plots were treated with distilled water only (6.375 L). The KCl plots treated with distilled water containing the same amount of K as was needed to convert the phosphorous acid (H3PO3) to dipotassium phosphite (K2HPO3). The phosphate plots were treated with sufficient dipotassium phosphate (K2HPO4) to deliver 3 g of P per plot dissolved in the same amount of distilled water as the control plots received and the KCl plots received. The phosphite plots were treated with sufficient dipotassium phosphite (K2HPO3) to deliver 3 g of P per plot dissolved in the same amount of distilled water as the control plots received, the KCl plots received and the phosphate plots received.
The field experiment reported in this example was conducted during June through October. Plots were established during early June and treated on the 15th and 16th day (as in Example 3 above). The first soil and root sampling was performed 14 days later (t=14). The second set of samples were taken 47 days later (t=61), and the third set 60 days later (t=121 days). Sample size and depth was as detailed above in Example 3.
AMF spores were evaluated in soil samples from which plant roots including plant roots of western wheatgrass had existed and had been removed. Evaluations were performed on the T=0 and the T=47 samples. These evaluations generally entailed mixing the sample with water, centrifugation, and decanting water. This step was performed to remove light organic matter and other light materials, e.g., leaf fragments. This was followed by mixing the soil with a solution of sodium hexametaphosphate (2%) in 2 M sucrose. Centrifugation results in the spores floating on the sucrose solution or suspended in it. The sucrose solution plus spores is decanted into a separatory funnel. The suspension was allowed to exit the funnel one drop at a time. The spores adhere to the inside of the funnel and once all liquid has exited the funnel the spores are washed into a petri-dish and counted under a dissecting microscope.
The specific protocol for spore extraction was as follows: • A) Weigh 5 g of air dried soil into a 20 ml centrifuge tube. For a complete sample this is replicated four times. • B) Fill each tube with water to ˜1.5 cm of the top. Stir to suspend organic matter and other light debris. Let all tubes stand for 10 minutes. • C) Centrifuge at 2000 rpm (475.2×g) for 10 minutes. Be sure tubes are placed across from each other in the centrifuge and are within 0.1 g of the same weight. • D) Pour off and discard supernatant while stirring surface and rotating tube. • E) If much organic matter and other light material remains, repeat steps B through D. • F) Add sucrose/sodium hexametaphosphate solution (2 molar sucrose containing 2% hexametaphosphate: 684.6 g of sucrose (store grade is adequate) and 20 g of sodium hexametaphosphate in one liter of solution using distilled water) to centrifuge tubes to ˜1.5 cm of top. […]

Row | SMILES | Total Spores t = 47 days [Ab Per 100 g soil] | Total Spores t = 47 days (listed as phosphite) | Total Spores t = 0 days [Aa Per 100 g soil] | spore numbers compared with the control
1 | OP(O)O [PO3, dipotassium phosphite] | 17896 | 17,896 Per 100 g soil | 6429 | significant increase in spore numbers from the control
2 | O=P([O-])([O-])O.[K+].[K+] [PO4, dipotassium phosphate] | 12960 | – | 4998 | significant increase in spore numbers from the control
